Here are results for 16 compounds from BindingDB's records for doi:10.1016/j.bmc.2007.01.010 (Abbott Laboratories, 2007).

pIC50: −log10 of the molar value.

T1 sequence (P31749 139-480 S378A/S381A/T450D/S473D): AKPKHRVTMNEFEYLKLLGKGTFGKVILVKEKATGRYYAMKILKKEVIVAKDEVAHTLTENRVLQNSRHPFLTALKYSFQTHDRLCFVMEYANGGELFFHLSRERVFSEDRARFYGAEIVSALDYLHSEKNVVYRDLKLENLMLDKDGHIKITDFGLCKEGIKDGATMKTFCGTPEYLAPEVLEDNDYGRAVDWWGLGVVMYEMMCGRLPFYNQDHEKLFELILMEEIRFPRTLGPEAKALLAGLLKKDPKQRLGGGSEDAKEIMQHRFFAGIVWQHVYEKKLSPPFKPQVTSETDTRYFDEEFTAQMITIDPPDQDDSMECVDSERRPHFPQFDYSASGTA

This assay concerns the target T1, RAC-alpha serine/threonine-protein kinase [139-480,S378A,S381A,T450D,S473D] (Homo sapiens, UniProt P31749, S378A/S381A/S473D/T450D).
T1 construct: 139-480
The experiment in a line: Akt Kinase Assay. The conditions noted are these: pH 7.5; 22 °C. The method, then:
The kinase assay uses His-Akt1 and a biotinylated peptide as substrate. The biotinylated peptides were immobilized on streptavidin-coated FLASH plates. After reaction, the 33P-phosphopeptide captured on the FLASH plates was measured with a TopCount Packard Instruments […] (Packard Instruments, Boston, MA).
The term pIC50 denotes −log10 of the IC50, conventionally taken in molar units. Read a high pIC50 as a small IC50. `N[C@H](COc1cncc(-c2cc3cn[nH]c3cn2)c1)Cc1c[nH]c2ccccc12` [3-[(2S)-2-amino-3-[(5-{1H-pyrazolo[3,4-c]pyridin-5-yl}pyridin-3-yl)oxy]propyl]-1H-indole] showed a pIC50 of 9.22. `Cn1cccc1-c1n[nH]c2cnc(-c3cncc(OC[C@@H](N)Cc4ccccc4)c3)cc12` [3-[(2S)-2-amino-3-phenylpropoxy]-5-[3-(1-methyl-1H-pyrrol-2-yl)-1H-pyrazolo[3,4-c]pyridin-5-yl]pyridine] gave a negative-log IC50 (pIC50) of 6.64.

In the case of `N[C@H](COc1cncc(-c2cc3c(-c4ccco4)n[nH]c3cn2)c1)Cc1ccccc1` [3-[(2S)-2-amino-3-phenylpropoxy]-5-[3-(furan-2-yl)-1H-pyrazolo[3,4-c]pyridin-5-yl]pyridine], the pIC50 is 8.21. Consider `N[C@H](COc1cncc(-c2cc3cn[nH]c3cn2)c1)Cc1ccccc1` [3-[(2S)-2-amino-3-phenylpropoxy]-5-{1H-pyrazolo[3,4-c]pyridin-5-yl}pyridine], for which the pIC50 is 6.65.

Turning to `N[C@H](COc1cncc(-c2cc3c(Cl)n[nH]c3cn2)c1)Cc1ccccc1` [3-[(2S)-2-amino-3-phenylpropoxy]-5-{3-chloro-1H-pyrazolo[3,4-c]pyridin-5-yl}pyridine], the negative-log IC50 (pIC50) was 7.23. The compound `C=Cc1n[nH]c2cnc(-c3cncc(OC[C@@H](N)Cc4ccccc4)c3)cc12` [3-[(2S)-2-amino-3-phenylpropoxy]-5-{3-ethenyl-1H-pyrazolo[3,4-c]pyridin-5-yl}pyridine] gave a pIC50 of 7.89. The compound `Cc1n[nH]c2cnc(-c3cncc(OC[C@@H](N)Cc4ccccc4)c3)cc12` [3-[(2S)-2-amino-3-phenylpropoxy]-5-{3-methyl-1H-pyrazolo[3,4-c]pyridin-5-yl}pyridine] showed a negative logarithm of the IC50 (pIC50) of 7.60. `N[C@H](COc1cncc(-c2cc3c(-c4ccccc4)n[nH]c3cn2)c1)Cc1ccccc1` [3-[(2S)-2-amino-3-phenylpropoxy]-5-{3-phenyl-1H-pyrazolo[3,4-c]pyridin-5-yl}pyridine] had a pIC50 of 8.08.

The compound `Nc1cc2[nH]ncc2cc1-c1cncc(OC[C@@H](N)Cc2c[nH]c3ccccc23)c1` [5-{5-[(2S)-2-amino-3-(1H-indol-3-yl)propoxy]pyridin-3-yl}-1H-indazol-6-amine] had a negative logarithm of the IC50 (pIC50) of 7.29. With `N[C@H](COc1cncc(-c2ccc3[nH]ncc3c2)c1)Cc1c[nH]c2ccccc12` [5-{5-[(2S)-2-amino-3-(1H-indol-3-yl)propoxy]pyridin-3-yl}-1H-indazole], the pIC50 is 8.82. As for `N[C@H](COc1cncc(-c2ccc3[nH]nc(C(F)(F)F)c3c2)c1)Cc1c[nH]c2ccccc12` [5-{5-[(2S)-2-amino-3-(1H-indol-3-yl)propoxy]pyridin-3-yl}-3-(trifluoromethyl)-1H-indazole], the negative-log IC50 (pIC50) was 8.74.

In turn, `Nc1cc2[nH]nc(Cl)c2cc1-c1cncc(OC[C@@H](N)Cc2c[nH]c3ccccc23)c1` [5-{5-[(2S)-2-amino-3-(1H-indol-3-yl)propoxy]pyridin-3-yl}-3-chloro-1H-indazol-6-amine] gave a negative logarithm of the IC50 (pIC50) of 8.15. The same measure for `N[C@H](COc1cncc(-c2ccc3[nH]nc(Cl)c3c2)c1)Cc1c[nH]c2ccccc12` [5-{5-[(2S)-2-amino-3-(1H-indol-3-yl)propoxy]pyridin-3-yl}-3-chloro-1H-indazole]: 9.00. For the compound `N[C@H](COc1cncc(-c2cc3cn[nH]c3cc2[N+](=O)[O-])c1)Cc1c[nH]c2ccccc12` [5-{5-[(2S)-2-amino-3-(1H-indol-3-yl)propoxy]pyridin-3-yl}-6-nitro-1H-indazole], the negative-log IC50 (pIC50) is 6.02.

`Cc1n[nH]c2c[n+]([O-])c(-c3cncc(OC[C@@H](N)Cc4ccccc4)c3)cc12` [5-{5-[(2S)-2-amino-3-phenylpropoxy]pyridin-3-yl}-3-methyl-6-oxido-1H-pyrazolo[3,4-c]pyridin-6-ium] had a pIC50 of 6.98. The compound `Cc1n[nH]c2cnc(-c3cncc(OC[C@@H](N)Cc4c[nH]c5ccccc45)c3)cc12` [pyrazolopyridine analog, 9g] gave a negative-log IC50 (pIC50) of 9.47.
